A short description of data set [1]: in vitro. The settings on record: dog.
Data set [2] relates to influenza virus A/Puerto Rico/8/34 (H1N1). To be noted: influenza A/Puerto Rico/8/34 (H1N1); MDCK cells.
For data set [3] the test system is unchanged. As to the kind of experiment: organism not typed. The settings on record: MDCK, read-out: IC50 (50% inhibition of virus-induced CPE).
Data set [4] deals with HSV-1/L2. Kind of data set: Suppression of virus-induced cytopathogenic effect (CPE), reference strain HSV-1/L2 in Vero E6 cells. The settings on record: for IC50: Human alphaherpesvirus 1, Vero C1008, read-out: IC50 (50% inhibition of virus-induced CPE). The text has this: (§1) The anti-herpesvirus activity of the synthesized compounds 5a–e was studied against the reference strain HSV-1/L2 and the acyclovir-resistant strain HSV-1/L2/R in the Vero E6 cells (Table 1) by suppressing the virus-induced cytopathogenic effect (CPE) as described previously. Acyclovir, Foscarnet (sodium phosphonoformate hexahydrate), a drug of choice in clinical practice in case of inefficiency of acyclovir and related compounds, including cases of drug resistance, and Ribavirin, were used as reference drugs. To assess the cytotoxicity of the studied compounds, the percentage of viable and non-viable cells was determined using Trypan blue exclusion assay.

A short description of data set [5]: in vitro. To be noted: African green monkey.
From the text: as §1

For data set [6], the system named is HSV-1/L2/R. As to the kind of experiment: microbe, parasite or virus in culture. To be noted: for SI (CC50/IC50): HSV-1/L2/R (acyclovir-resistant), Vero E6 cells; for IC50: Human alphaherpesvirus 1, Vero C1008, read-out: IC50 (50% inhibition of virus-induced CPE).
From the text: as §1

In a further data set the test system is MDCK cells. To be noted: read-out: CC50 ± SD, data for comparison, ref [31]; cited from earlier work.
In the next data set the test system is Vero E6 cells. The settings on record: read-out: CC50 ± SD, data for comparison, ref [27]; cited from earlier work.
For data set [7], the system named is HSV-1/L2. To be noted: cited from earlier work.
Data set [8] has as its system influenza virus A/Puerto Rico/8/34 (H1N1). To be noted: influenza A/Puerto Rico/8/34 (H1N1), MDCK cells, data for comparison, ref [31], cited from earlier work.
Data set [9] concerns HSV-1/L2/R. To be noted: HSV-1/L2/R (acyclovir-resistant); Vero E6 cells; data for comparison; ref [27]; cited from earlier work.

The structures appear in SMILES notation. “And” between values parts separate entries of the source, which are not always exact repeats. Equal entries are not always repeated. Where two headings read alike, the source gives them in different places. Where only a bound is given, the exact number is not on record here.

The IC50 is the concentration at which inhibition is half-maximal. By melting point is commonly meant the temperature of the solid-liquid transition.

As to `CCC(CC)O[C@@H]1C=C(C(=O)O)C[C@H](N)[C@H]1NC(C)=O` [Oseltamivir carboxylate, reference compound], the CC50 in the data set “in vitro [1]” was over 200 µM. Besides, the “SI (CC50/IC50)” value in data set [2] is recorded as over 667. The concentration for half-maximal inhibition (IC50) in data set [3] is 0.3 µM.
Take `NC(=O)c1ncn([C@@H]2O[C@H](CO)[C@@H](O)[C@H]2O)n1` [Ribavirin, reference compound]: the “SI (CC50/IC50)” value with HSV-1/L2 [4] and in the data set on HSV-1/L2/R [6] was over 4 throughout. Moreover, the 50% inhibitory concentration (IC50) with HSV-1/L2 [4] and with HSV-1/L2/R [6] was 1020 µM in each case. In “in vitro [5]”, this compound showed a CC50 of over 4100 µM.
`CC1COc2c(ccc(F)c2F)N1C(=O)CCCCCNc1cc(Cl)nc(N)n1` (racemic) [(RS)-5b, (RS)-4-[6-(2-Amino-6-chloropyrimidin-4-yl)aminohexanoyl]-7,8-difluoro-3,4-dihydro-3-methyl-2H-[1,4]benzoxazine] had a melting point of 92 to 94 °C. The compound also gave a CC50 in the data set “in vitro [1]” of 705 ± 42 µM. In data set [2], the “SI (CC50/IC50)” value is given as under 8. Further, the “SI (CC50/IC50)” value in the data set on HSV-1/L2 [4] (HSV-1/L2, Vero E6 cells) is 3.7. Also, in the data set with HSV-1/L2 [4], the half-maximal inhibitory concentration (IC50) turned out to be 73.4 µM. In data set [3], the half-inhibitory concentration (IC50) was found to be 92 ± 11 µM. The compound further gave a CC50 in “in vitro [5]” of 275 ± 4.3 µM. For the same compound, in the data set with HSV-1/L2/R [6], the “SI (CC50/IC50)” value is under 4 and the IC50 amounted to 73.4 µM.
`C[C@H]1COc2c(ccc(F)c2F)N1C(=O)CCCCCNc1ncnc2[nH]ccc12` [(S)-5e, (3S)-7,8-Difluoro-3,4-dihydro-3-methyl-4-[6-(7H-pyrrolo[2,3-d]pyrimidin-4-yl)aminohexanoyl]-2H-[1,4]benzoxazine] had a melting point of 87 to 89 °C. The compound further showed a CC50 in “in vitro [1]” of 47 ± 3 µM. The “SI (CC50/IC50)” value in data set [2] is under 2. Also, the “SI (CC50/IC50)” value in the data set on HSV-1/L2 [4] (HSV-1/L2, Vero E6 cells) is 6 and 6.3. The IC50 in the data set on HSV-1/L2 [4] was 74.2 µM. The IC50 in [3] was over 26 µM. This compound displayed a CC50 in “in vitro [5]” of 469 ± 10.8 µM. In the data set with HSV-1/L2/R [6], the “SI (CC50/IC50)” value is given as 6 and the half-maximal inhibitory concentration (IC50) came to 75.2 µM.
Consider `C[C@@H]1COc2c(ccc(F)c2F)N1C(=O)CCCCCNc1ncnc2[nH]ccc12.C[C@@H]1COc2c(ccc(F)c2F)N1C(=O)CCCCCNc1ncnc2[nH]ccc12.O` (racemic) [(RS)-5e, (RS)-7,8-Difluoro-3,4-dihydro-3-methyl-4-[6-(7H-pyrrolo[2,3-d]pyrimidin-4-yl)aminohexanoyl]-2H-[1,4]benzoxazine Hemihydrate], for which the values for the CC50 in “in vitro [1]” and in “in vitro [5]” were 86 ± 4 µM and 17.6 ± 0.85 µM, respectively. Also, the “SI (CC50/IC50)” value was 1 in data set [2]; under 1 in the data set with HSV-1/L2 [4] (HSV-1/L2, Vero E6 cells); under 1 in the data set on HSV-1/L2/R [6]. The values for the 50% inhibitory concentration (IC50) (in the data set with HSV-1/L2 [4]; in data set [3]; in the data set with HSV-1/L2/R [6]) were 18.6 µM, over 80 µM and 18.6 µM, respectively.
Take `C[C@@H]1COc2c(ccc(F)c2F)N1C(=O)CCCCCNc1ccnc(N)n1.C[C@@H]1COc2c(ccc(F)c2F)N1C(=O)CCCCCNc1ccnc(N)n1.O.O.O` (racemic) [(RS)-5a, (RS)-4-[6-(2-Aminopyrimidin-4-yl)aminohexanoyl]-7,8-difluoro-3,4-dihydro-3-methyl-2H-[1,4]benzoxazine Sesquihydrate]: the CC50 in “in vitro [1]” amounted to 11 ± 1 µM; in the data set “in vitro [5]”, 151 ± 8.36 µM. The “SI (CC50/IC50)” value in data set [2] is over 1; with HSV-1/L2 [4] (HSV-1/L2, Vero E6 cells) it was 8 and 8.1; with HSV-1/L2/R [6], 8. For the same compound, the IC50 turned out to be 18.6 µM in the data set with HSV-1/L2 [4], 8 ± 1 µM in [3] and 18.6 µM with HSV-1/L2/R [6].
For `C[C@H]1COc2c(ccc(F)c2F)N1C(=O)CCCCCNc1ccnc(N)n1.O` [(S)-5a, (S)-4-[6-(2-Aminopyrimidin-4-yl)aminohexanoyl]-7,8-difluoro-3,4-dihydro-3-methyl-2H-[1,4]benzoxazine Hydrate], the CC50 in “in vitro [1]” came to 23 ± 1.2 µM; in “in vitro [5]”, 34.6 ± 0.88 µM. The “SI (CC50/IC50)” value in data set [2] is on record as over 3; in the data set on HSV-1/L2 [4] (HSV-1/L2, Vero E6 cells), 3.7; in the data set with HSV-1/L2/R [6], under 4. Further, the IC50 with HSV-1/L2 [4] came out at 9.27 µM; in [3] it was 7 ± 1 µM; in the data set with HSV-1/L2/R [6], 9.27 µM.
Consider `Nc1nc2c(ncn2COCCO)c(=O)[nH]1` [Acyclovir, reference compound], for which, in the data set on HSV-1/L2 [4], the “SI (CC50/IC50)” value is recorded as over 256 and the IC50 was 1.73 µM. The compound also gave a CC50 in the data set “in vitro [5]” of over 444 µM. For the same compound, in the data set with HSV-1/L2/R [6], the “SI (CC50/IC50)” value came out at 1 and the half-maximal inhibitory concentration (IC50) was over 444 µM.
Regarding `C[C@@H]1COc2c(ccc(F)c2F)N1C(=O)CCCCCNc1ccnc(N)n1.C[C@@H]1COc2c(ccc(F)c2F)N1C(=O)CCCCCNc1ccnc(N)n1.O.O.O` (racemic) (hydrate or solvate) [(RS)-5a, (RS)-4-[6-(2-Aminopyrimidin-4-yl)aminohexanoyl]-7,8-difluoro-3,4-dihydro-3-methyl-2H-[1,4]benzoxazine Sesquihydrate], the melting point lay in the range of 59 to 60 °C.
In turn, `CC1COc2c(ccc(F)c2F)N1C(=O)CCCCCNc1cc(Cl)ncn1` (racemic) [(RS)-5c, (RS)-4-[6-(6-Chloropyrimidin-4-yl)aminohexanoyl]-7,8-difluoro-3,4-dihydro-3-methyl-2H-[1,4]benzoxazine] displayed a melting point of 101 to 103 °C. Also, in the data set “in vitro [1]”, the CC50 is 9 ± 1 µM. Further, the “SI (CC50/IC50)” value in data set [2] came out at 1. For the same compound, the “SI (CC50/IC50)” value with HSV-1/L2 [4] (HSV-1/L2, Vero E6 cells) was over 2.0. Moreover, the half-inhibitory concentration (IC50) with HSV-1/L2 [4] amounted to 148 µM. Moreover, the IC50 in [3] was over 8 µM. This compound returned a CC50 in the data set “in vitro [5]” of over 304 µM. In the data set with HSV-1/L2/R [6], the “SI (CC50/IC50)” value is listed as 2 and the half-maximal inhibitory concentration (IC50) amounted to 152 µM.
Consider `C[C@H]1COc2c(ccc(F)c2F)N1C(=O)CCCCCNc1ncnc2[nH]cnc12` [(S)-1], for which the CC50 is 24 ± 1 µM with MDCK cells and 293 ± 15.5 µM with Vero E6 cells. Moreover, the “SI (CC50/IC50)” value in the data set with HSV-1/L2 [7] (Vero E6 cells, data for comparison, ref [27]) was 64; in data set [8] it was >2 ^1; with HSV-1/L2/R [9], 64 ^1. Further, the IC50 was 4.6 µM in the data set on HSV-1/L2 [7] (read-out: IC50 (50% inhibition of virus-induced CPE), Vero E6 cells, data for comparison, ref [27]) and over 10 µM in [8] (read-out: IC50 (50% inhibition of virus-induced CPE)).
The compound `C[C@@H]1COc2c(ccc(F)c2F)N1C(=O)CCCCCNc1ncnc2[nH]ccc12.C[C@@H]1COc2c(ccc(F)c2F)N1C(=O)CCCCCNc1ncnc2[nH]ccc12.O` (racemic) (hydrate or solvate) [(RS)-5e, (RS)-7,8-Difluoro-3,4-dihydro-3-methyl-4-[6-(7H-pyrrolo[2,3-d]pyrimidin-4-yl)aminohexanoyl]-2H-[1,4]benzoxazine Hemihydrate] gave a melting point of 86 to 88 °C.
Compound `C[C@H]1COc2c(ccc(F)c2F)N1C(=O)CCCCCNc1ccnc(N)n1.O` (hydrate or solvate) [(S)-5a, (S)-4-[6-(2-Aminopyrimidin-4-yl)aminohexanoyl]-7,8-difluoro-3,4-dihydro-3-methyl-2H-[1,4]benzoxazine Hydrate] gave a melting point of 78 to 80 °C.
Turning to `O=C(O)P(=O)(O)O` [Foscarnet, sodium phosphonoformate hexahydrate, reference compound], the “SI (CC50/IC50)” value in the data set on HSV-1/L2 [4] and with HSV-1/L2/R [6] was over 4 each time. For the same compound, the 50% inhibitory concentration (IC50) in the data set with HSV-1/L2 [4] and in the data set with HSV-1/L2/R [6] was 104 µM each time. The compound further gave a CC50 in the data set “in vitro [5]” of over 417 µM.
Regarding `CC1COc2c(ccc(F)c2F)N1C(=O)CCCCCNc1ncccn1` (racemic) [(RS)-5d, (RS)-7,8-Difluoro-3,4-dihydro-3-methyl-4-[6-(pyrimidin-2-yl)aminohexanoyl]-2H-[1,4]benzoxazine], the melting point was 106 to 108 °C. Further, the CC50 in the data set “in vitro [1]” stood at 257 ± 12 µM. In the data set on HSV-1/L2 [4] (HSV-1/L2, Vero E6 cells), the “SI (CC50/IC50)” value turned out to be 1.7. For the same compound, the IC50 with HSV-1/L2 [4] is 297 µM. For the same compound, the IC50 in data set [3] was over 88 µM. Moreover, in “in vitro [5]”, the CC50 is 505 ± 17.7 µM. Also, in the data set on HSV-1/L2/R [6], the “SI (CC50/IC50)” value is listed as under 2 and the IC50 stood at 297 µM.
